Values joined by “and” are separate entries in the source; they are usually repeats but may differ in a detail not shown here. Equal values may be shown once.
What was measured:
[1] = tested on: hyperlipidemia patients (cardiac events); conditions: use in combination with statin; large scale clinical trial; cited from earlier work
[2] = tested on: hyperlipidemia patients having history of stroke (onset/recurrence of stroke); assay: DELIS (Japan EPA Lipid Intervention Study) partial analysis: recurrence of stroke over 5 years in patients with history of stroke; format: in vivo, human; set-up: Inhibition Rate (%): concentration or dose not given beside the values; conditions: for Incidence rate (%) of EPA-E group: TG less than 400 mg/dL; for Inhibition Rate (%): vs control group; for reduction of the incidence rate of stroke (in words): time course 1 to 5 years
Protocol: This trial is a partial analysis of the results obtained in DELIS (Japan EPA Lipid Intervention Study), a large scale clinical trial of high purity EPA preparation which was presented at the American College of Cardiology 2005 Annual Meeting.
Specifically, of the 18,645 subject patients in the DELIS trial (hyperlipidemia patients with serum T-Cho concentration of 250 mg/dl or more, at ages of 40 to 75 for male and […] to 75 for female; the patients within six months from the onset of stroke were excluded in order to exclude patients in the acute period of the stroke from the trial subjects) (EPA-E group (9,326 cases) and control group (9,319 cases)), 485 subjects from the EPA-E group and 457 subjects from the control group, having history of stroke (cerebral thrombosis, cerebral embolism, intracerebral hemorrhage, subarachnoid hemorrhage, and transient ischemic attack) were observed and analyzed for the recurrence of stroke during the period of 5 years from the start of the administration. Further, for the cases where serum TG/HDL-C ratio was known (but excluding the cases where TG value was 400 mg/dl or more), results from the subjects divided into three groups based on the serum TG/HDL-C ratio at the time of registration were also analyzed. The EPA-E group was orally administered with Epadel (Mochida Pharmaceutical Co., Ltd.) typically at an adult dose of 600 mg per administration and 3 times a day immediately after the meal. However, in the cases having abnormal serum TG, the dose could be increased up to 900 mg per administration and 3 times a day, depending on the abnormality. In both groups, pravastatin sodium (Mevalotin™ tablets and fine granules, Sankyo Co., Ltd.), simvastatin (Lipovas™ tablets, Banyu Pharmaceutical Co., Ltd.), or atorvastatin calcium hydrate (Lipitor™ tablets, Astellas Pharma Inc. and Pfizer) was used as a base drug (basal treatment), which was orally administered according to a predetermined dosage regimen.
The number of onset (recurrence) of stroke, the incidence rate (%), and the odds ratio for the EPA-E group in relation to the control group during the observation period of 5 years are shown in Table 1. The odds ratio was calculated by the equation of (incidence rate of the EPA-E group)/(incidence rate of the control group), and the inhibition rate of onset of stroke was calculated by the equation of {((incidence rate of stroke for the control group)−(incidence rate of stroke for the EPA-E group))/(incidence rate of stroke for the control group)}×100.
Further, the data described above were statistically analyzed by taking biases in the background (smoking habit, diabetes, etc.) between the groups into consideration.
Similarly, for the cases where serum TG/HDL-C ratio was known (but excluding the cases where TG value was 400 mg/dl or more), each of the three groups of subjects, which are divided based on the serum TG/HDL-C ratio at the time of registration, was analyzed on the number of onset (recurrence) of stroke, the incidence rate (%), and the odds ratio for the EPA-E group in relation to the control group during the observation period of 5 years, as shown in Table 4. The odds ratio was calculated by the equation of (incidence rate of the EPA-E group)/(incidence rate of the control group), and the inhibition rate of onset of stroke was calculated by the equation of {((incidence rate of stroke for the control group)−(incidence rate of stroke for the EPA-E group))/(incidence rate of stroke for the control group)}×100.

[3] = after 1 year, serum TG/HDL-C ratio 3.75 or more
[4] = after 2 years, serum TG/HDL-C ratio 3.75 or more
[5] = after 3 years, serum TG/HDL-C ratio 3.75 or more
[6] = after 4 years, serum TG/HDL-C ratio 3.75 or more
[7] = after 5 years, serum TG/HDL-C ratio 3.75 or more
[8] = all patients with history of stroke, 5 years
[9] = cerebral thrombosis, patients with history of stroke, 5 years
[10] = serum TG/HDL-C ratio at registration less than 1, TG less than 400 mg/dl, 5 years
[11] = total of infarction type diseases, patients with history of stroke, 5 years

CC/C=C\C/C=C\C/C=C\C/C=C\C/C=C\CCCC(=O)OCC [EPA-E, ethyl icosapentate]
inhibiting cardiac events [1]: effective | Incidence rate (%) in EPA-E group ([2]; after 1 year, all patients with history of stroke, analyzed taking background biases into consideration): 2.1% | Incidence rate (%) of EPA-E group [2, 3]: 1.5% | Inhibition Rate (%) [2, 3]: 17% | Incidence rate (%) in EPA-E group ([2]; after 2 years, all patients with history of stroke, bias-adjusted analysis): 3.6% | Inhibition Rate (%) ([2]; after 2 years, all patients with history of stroke): 8% | Incidence rate (%) of EPA-E group [2, 4]: 2.9% | Inhibition Rate (%) [2, 4]: 53% | Incidence rate (%) in EPA-E group ([2]; after 3 years, all patients with history of stroke, bias-adjusted analysis): 4.7% | Inhibition Rate (%) ([2]; after 3 years, all patients with history of stroke): 16% | Incidence rate (%) of EPA-E group [2, 5]: 4.4% | Inhibition Rate (%) [2, 5]: 29% | Incidence rate (%) in EPA-E group ([2]; after 4 years, all patients with history of stroke, bias-adjusted analysis): 5.7% | Inhibition Rate (%) ([2]; after 4 years, all patients with history of stroke): 35% | Incidence rate (%) of EPA-E group [2, 6]: 5.2% | Inhibition Rate (%) [2, 6]: 55% | Incidence rate (%) in EPA-E group ([2]; after 5 years, all patients with history of stroke, bias-adjusted analysis): 7.4% | Inhibition Rate (%) ([2]; after 5 years, all patients with history of stroke): 37% | Incidence rate (%) of EPA-E group [2, 7]: 7.4% | Inhibition Rate (%) [2, 7]: 48% | Odds ratio (incidence rate of EPA-E group/incidence rate of control group) [2, 8]: 0.648 | reduction of incidence rate of stroke compared with the control group [2, 8]: about 35% | Stroke cases/All cases ([2]; all patients with history of stroke, observation period of 5 years, Epadel 600 mg 3 times a day (up to 900 mg) plus statin base drug): 33/485 | reduction of the incidence rate of stroke (in words) ([2]; all patients with history of stroke): significant at 3 years or later after the start of the administration | Stroke cases/All cases, cerebral thrombosis [2, 9]: 13/485 | incidence rate, cerebral thrombosis [2, 9]: (2.9%) | number of cases and incidence rates of hemorrhage type diseases vs control group ([2]; hemorrhage type diseases, patients with history of stroke): lower | reduction of the incidence rate of stroke (in words) ([2]; patients with serum TG/HDL-C ratio 3.75 or more): significant at 3 years or later after the start of the administration | reduction of incidence rate of stroke compared to the control group ([2]; serum TG/HDL-C ratio 1 or more but less than 3.75, 5 years): about 36% | reduction of incidence rate of stroke compared to the control group ([2]; serum TG/HDL-C ratio 3.75 or more, 5 years): about 48% | Odds ratio (incidence rate of EPA-E group/incidence rate of control group) ([2]; serum TG/HDL-C ratio at registration 1 to 3.75, 5 years): 0.640 | Stroke cases/All cases ([2]; serum TG/HDL-C ratio at registration 1 to 3.75, TG less than 400 mg/dl, 5 years): 14/244 | Odds ratio (incidence rate of EPA-E group/incidence rate of control group) ([2]; serum TG/HDL-C ratio at registration 3.75 or more, 5 years): 0.519 | Stroke cases/All cases ([2]; serum TG/HDL-C ratio at registration 3.75 or more, TG less than 400 mg/dl, 5 years): 10/135 | Stroke cases/All cases [2, 10]: no onset of stroke was observed and 0/18 | incidence rate of stroke [2, 10]: (0.0) % | Stroke cases/All cases, total of infarctions [2, 11]: 28/485 | incidence rate, total of infarctions [2, 11]: (6.20) %
